Molecular target: T1, xylanase II (XYN II) (Trichoderma reesei, UniProt P36217)
T1 construct: gene xyn2; native secreted enzyme purified from wheat-straw culture supernatant of T. reesei QM 9414
Test: differential scanning calorimetry
Assay type: binding
Details: 0.4 M GL, 1 mg/mL protein, 0.1 M sodium citrate pH 5, scan rate 15°C/h; absolute Tm, not a shift; control without GL 57.27°C (irreversible)
From the text: differential scanning calorimetry on xylanase II (XYN II)

T1 sequence (P36217 34-223): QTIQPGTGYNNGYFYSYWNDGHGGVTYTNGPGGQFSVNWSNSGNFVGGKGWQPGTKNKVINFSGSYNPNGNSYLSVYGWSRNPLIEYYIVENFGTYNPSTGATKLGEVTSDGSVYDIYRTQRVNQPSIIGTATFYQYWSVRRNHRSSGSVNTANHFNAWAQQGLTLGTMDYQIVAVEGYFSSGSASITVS

Global: 54.1 °C
Compound: O=C1O[C@H](CO)[C@@H](O)[C@H](O)[C@H]1O (mixture of isomers) [GL, D-glucono-1,5-lactone]

From article PMC4170777, “Effect of Temperature on Xylanase II from Trichoderma reesei QM 9414: A Calorimetric, Catalytic, and Conformational Study” (Enzyme Research, 2014)
